Reference: PMC9890130 (Clinical cancer research : an official journal of the …, 2023)

What was measured:
BFTC909 xenografts [1] = experiment: [^68Ga]Ga-DK223 PET-CT of BFTC909 xenografts after aPD-L1 treatment; format: in vivo, NSG mice
BFTC909 xenografts [2] = format: in vivo, NSG mice; details: 10 mg/kg; for accessible PD-L1 levels: 120 h of treatment, tumor %ID/g as fraction of saline group; for [^68Ga]Ga-DK223 tumor uptake versus saline controls: 120 h treatment
BFTC909 cells = experiment: [^68Ga]Ga-DK223 uptake in BFTC909 cells with and without aPD-L1 mAbs; format: cell-based, human; details: 60 nM mAb
[3] = cited from earlier work
[4] = Biodistribution of [^68Ga]Ga-DK385; format: in vivo, mice; details: mouse, iv, 50 uCi, total radioactivity
[5] = 24 h after 10 mg/kg mAb i.v., PET 60 min after tracer

| Molecule | [^68Ga]Ga-DK223 uptake in tumors (PET) after mAb treatment (BFTC909 xenografts [1]; [5]) | accessible PD-L1 levels (BFTC909 xenografts [2]) | [^68Ga]Ga-DK223 tumor uptake versus saline controls (BFTC909 xenografts [2]) | [^68Ga]Ga-DK223 uptake in BFTC909 cells in presence of mAb (BFTC909 cells) | half-life [3] [days] | tissue to tissue ratio at 1 h ([4]; tumor and blood) | tissue to tissue ratio at 1 h ([4]; tumor and muscle) | tissue uptake at 1 h ([4]; tumor) [%ID/g] | [^68Ga]Ga-DK223 uptake in tumors (PET) after mAb treatment (BFTC909 xenografts [1]; 72 h after 10 mg/kg mAb i.v., avelumab compared with durvalumab) | reduction of [^68Ga]Ga-DK223 tumor uptake versus saline (BFTC909 xenografts [2]; 24 h treatment, P<0.0001) |
| --- | --- | --- | --- | --- | --- | --- | --- | --- | --- | --- |
| durvalumab | significantly lower uptake | less than 10% | continued reduction in accessible target levels | less than 1% | 18 |  |  |  |  |  |
| CCCC[C@H]1C(=O)N(C)[C@@H](CCCC)C(=O)N[C@@H](CCCCNC(=O)CCC(C(=O)O)N2CCN(CC(=O)O)CCN(CC(=O)O)CCN(CC(=O)O)CC2)C(=O)N[C@H](C(=O)NCC(N)=O)CSCC(=O)N[C@@H](Cc2ccc(O)cc2)C(=O)N(C)[C@@H](C)C(=O)N[C@@H](CC(N)=O)C(=O)N2CCC[C@H]2C(=O)N[C@@H](Cc2c[nH]cn2)C(=O)N[C@@H](CCC(=O)O)C(=O)N2C[C@H](O)C[C@H]2C(=O)N[C@@H](Cc2c[nH]c3ccccc23)C(=O)N[C@@H](CO)C(=O)N[C@@H](Cc2cn(CC(=O)O)c3ccccc23)C(=O)N1C (stereo partly drawn) [[^68Ga]Ga-DK385, metal not drawn] |  |  |  |  |  | 2.32 ± 0.38 | 19.9 ± 2.15 | 8.5 ± 1.67 |  |  |
| avelumab | significantly lower uptake | increase in accessible PD-L1 levels | no significant differences | less than 1% | 6.1 |  |  |  | increased | more than 80% |
